The source of these data is ChEMBL document CHEMBL3817805, “Benzamide capped peptidomimetics as non-ATP competitive inhibitors of CDK2 using the REPLACE strategy” (Bioorg Med Chem Lett, 2016).

Residues, ends and D or L forms follow the SMILES beside them. A value given as a limit tells only on which side of the number the result lay.

One experiment addresses CDK2/Cyclin A2 (Homo sapiens, UniProt P24941). The experiment in a line: Inhibition of recombinant human CDK2/cyclin A2 using fluoresceinyl-Ahx-Pro-Val-Lys-Arg-Arg-Leu-Phe-Gly as substrate incubated for 45 mins by fluorescence polarization assay. The experiment is classed as protein-complex assay.
In experiment [1] the target is Cyclin-dependent kinase 4/cyclin D1 (Homo sapiens, UniProt P24385). The experiment in a line: Inhibition of recombinant human CDK4/cyclin D1 using fluoresceinyl-AhxPro-Val-Lys-Arg-Arg-Leu-(3ClPhe)-Gly as substrate incubated for 45 mins by fluorescence polarization assay. The experiment is classed as protein-complex assay.
The subject of the next experiment is U2OS. The experiment is described as follows: Antiproliferative activity against human U2OS cells incubated for 72 hrs by MTT assay. The experiment is classed as functional, cell-based. (Tetrazolium dyes change colour on reduction, which living cells bring about.)
Experiment [2] in a line: Antiproliferative activity against human DU145 cells incubated for 72 hrs by MTT assay. The experiment is classed as functional, cell-based. As to conditions: DU-145, 72 h.

Cyclin-dependent kinase 4/cyclin D1, sequence (P11802 whole entry): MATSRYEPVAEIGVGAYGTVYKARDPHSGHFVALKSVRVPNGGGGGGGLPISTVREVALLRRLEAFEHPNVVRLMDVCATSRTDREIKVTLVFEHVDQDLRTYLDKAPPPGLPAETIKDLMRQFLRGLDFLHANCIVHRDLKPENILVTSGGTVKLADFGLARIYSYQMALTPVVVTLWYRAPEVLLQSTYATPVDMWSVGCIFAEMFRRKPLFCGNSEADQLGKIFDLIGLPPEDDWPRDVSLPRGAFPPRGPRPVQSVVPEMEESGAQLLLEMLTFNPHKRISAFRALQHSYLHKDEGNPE
Cyclin-dependent kinase 4/cyclin D1, sequence (P24385 whole entry): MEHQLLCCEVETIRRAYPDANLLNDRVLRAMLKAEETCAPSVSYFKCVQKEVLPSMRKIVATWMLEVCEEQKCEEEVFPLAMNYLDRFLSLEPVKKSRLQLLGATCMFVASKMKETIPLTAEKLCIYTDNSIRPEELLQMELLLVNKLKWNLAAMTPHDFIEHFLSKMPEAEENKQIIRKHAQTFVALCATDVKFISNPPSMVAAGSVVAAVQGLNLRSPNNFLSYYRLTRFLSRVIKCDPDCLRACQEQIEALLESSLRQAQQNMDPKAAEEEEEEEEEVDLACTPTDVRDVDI

Broadly, the IC50 is the concentration that gives 50% inhibition. In the case of `CC(C)CC(CC(=O)NC(Cc1ccsc1)C(N)=O)NC(=O)[C@H](CCCNC(=N)N)NC(=O)c1ccc(CN(C)C2CCNCC2)cc1` (stereo partly drawn), at CDK2/Cyclin A2, the IC50 is over 50 µM.
The same measure, in the same setting: with `CC(C)CC(CC(=O)NC(Cc1ccsc1)C(N)=O)NC(=O)[C@H](CCCNC(=N)N)NC(=O)c1ccc(CN2CCNC[C@@H]2C)c(O)c1` (stereo partly drawn) the figure was 13.1 µM; with `CC(C)CC(CC(=O)NC(Cc1ccsc1)C(N)=O)NC(=O)[C@H](CCCNC(=N)N)NC(=O)c1ccc(CC2CCNCC2)cc1` (stereo partly drawn), over 30 µM.
Consider `CCOc1cc(C(=O)N[C@@H](CCCNC(=N)N)C(=O)N[C@@H](CC(C)C)C(=O)N[C@H](C(=O)N[C@@H](Cc2ccccc2)C(=O)O)[C@@H](C)CC)ccc1CN1CCNCC1` (HELM PEPTIDE1{[CCOc1cc(C(=O)[*:2])ccc1CN1CCNCC1].R.L.I.F}$$$$V2.0), for which the results for the IC50 (at CDK2/Cyclin A2; in experiment [1]) were 5.95 µM and 5.14 µM, respectively.
With `CC(C)C[C@H](NC(=O)[C@H](CCCNC(=N)N)NC(=O)c1ccc(CNC(=N)N)cc1)C(=O)N[C@@H](CC(N)=O)C(=O)N1CCC[C@@H]1C(=O)N[C@H](Cc1ccccc1)C(=O)N[C@@H](Cc1ccccc1)C(=O)O`, the half-inhibitory concentration (IC50) on CDK2/Cyclin A2 turned out to be 0.69 µM; in experiment [1], 15.3 µM.
Take `CC(C)C[C@H](NC(=O)[C@H](CCCNC(=N)N)NC(=O)c1ccc(CN2CCNCC2)cc1)C(=O)N[C@@H](CC(N)=O)C(=O)N1CCC[C@@H]1C(=O)N[C@H](Cc1ccccc1)C(=O)N[C@@H](Cc1ccccc1)C(=O)O`: the IC50 turned out to be 5.3 µM on CDK2/Cyclin A2 and 12.9 µM in experiment [1].
Turning to `CC(C)CC(CC(=O)NC(Cc1ccsc1)C(N)=O)NC(=O)[C@H](CCCNC(=N)N)NC(=O)c1ccc(CN(C)C2CCCNC2)cc1` (stereo partly drawn), the figures for the IC50 at CDK2/Cyclin A2 and in the experiment with U2OS were 31 µM and 153 µM, respectively.
Regarding `CC[C@H](C)[C@H](NC(=O)[C@H](CC(C)C)NC(=O)[C@H](CCCNC(=N)N)NC(=O)c1ccc(N2CCNCC2)cc1)C(=O)N[C@@H](Cc1ccccc1)C(=O)O` (HELM PEPTIDE1{[O=C(c1ccc(N2CCNCC2)cc1)[*:2]].R.L.I.F}$$$$V2.0), the IC50 in experiment [1] amounted to 23.8 µM.
Regarding `CC(C)CC(CC(=O)N(C)[C@@H](Cc1ccccc1)C(N)=O)NC(=O)[C@H](CCCNC(=N)N)NC(=O)c1ccc(CN2CCN(C3CCN(C)CC3)CC2)cc1` (stereo partly drawn), the IC50 at CDK2/Cyclin A2 turned out to be 8.32 µM; in experiment [1], 48.9 µM.
The like results for `CCN1CCN(Cc2ccc(C(=O)N[C@@H](CCCNC(=N)N)C(=O)NC(CC(=O)NC(Cc3ccsc3)C(N)=O)CC(C)C)cc2)[C@@H](C)C1` (stereo partly drawn) were, in that order, 6.78 µM and 45.6 µM.
Turning to `CC(C)CC(CC(=O)NC(Cc1ccsc1)C(N)=O)NC(=O)[C@H](CCCNC(=N)N)NC(=O)c1cc(OC2CCNCC2)cc(OC2CCNCC2)c1` (stereo partly drawn), on CDK2/Cyclin A2, the IC50 was over 30 µM.
Regarding `CC(C)CC(CC(=O)NC(Cc1ccsc1)C(N)=O)NC(=O)[C@H](CCCNC(=N)N)NC(=O)c1ccc(C=C2CCN(C)CC2)cc1` (stereo partly drawn), the IC50 at CDK2/Cyclin A2 worked out at 26 µM; in experiment [1] it was 69.9 µM.
`CC[C@H](C)[C@H](NC(=O)[C@H](CC(C)C)NC(=O)[C@H](CCCNC(=N)N)NC(=O)c1ccc(CN2CCNCC2)cc1)C(=O)N[C@@H](Cc1ccccc1)C(=O)O` (HELM PEPTIDE1{[O=C(c1ccc(CN2CCNCC2)cc1)[*:2]].R.L.I.F}$$$$V2.0): the IC50 turned out to be 12.9 µM at CDK2/Cyclin A2 and 11.7 µM in experiment [1].
For `CC[C@H](C)[C@H](NC(=O)[C@H](CC(C)C)NC(=O)[C@H](CCCNC(=N)N)NC(=O)c1ccc(CN2CCNCC2)c(O)c1)C(=O)N[C@@H](Cc1ccccc1)C(=O)O` (HELM PEPTIDE1{[O=C(c1ccc(CN2CCNCC2)c(O)c1)[*:2]].R.L.I.F}$$$$V2.0), the IC50 worked out at 4.56 µM at CDK2/Cyclin A2 and 10.4 µM in experiment [1].
For `CC(C)CC(CC(=O)NC(Cc1ccsc1)C(N)=O)NC(=O)[C@H](CCCNC(=N)N)NC(=O)c1ccc(CNC2CCNCC2)cc1` (stereo partly drawn), on CDK2/Cyclin A2, the IC50 was over 100 µM.
As to `CCN1CCN(Cc2ccc(C(=O)N[C@@H](CCCNC(=N)N)C(=O)NC(CC(=O)NC(Cc3ccsc3)C(N)=O)CC(C)C)cc2)CC1` (stereo partly drawn), the IC50 at CDK2/Cyclin A2 was found to be 17.4 µM; in experiment [1], 74.3 µM.
The like results for `CCCN1CCN(Cc2ccc(C(=O)N[C@@H](CCCNC(=N)N)C(=O)NC(CC(=O)NC(Cc3ccsc3)C(N)=O)CC(C)C)cc2)[C@@H](C)C1` (stereo partly drawn) were, in that order, 22.4 µM and 9.36 µM.
The like results for `CC[C@H](C)[C@H](NC(=O)[C@H](CC(C)C)NC(=O)[C@H](C)NC(=O)c1ccc(CN2CCNCC2)cc1)C(=O)N[C@@H](Cc1ccccc1)C(=O)O` (HELM PEPTIDE1{[O=C(c1ccc(CN2CCNCC2)cc1)[*:2]].A.L.I.F}$$$$V2.0) were, in that order, over 100 µM and 51.5 µM.
As for `CC(C)CC(CC(=O)NC(Cc1ccsc1)C(N)=O)NC(=O)[C@H](CCCNC(=N)N)NC(=O)c1ccc(C=C2CCNCC2)cc1` (stereo partly drawn), the IC50 was 9.16 µM on CDK2/Cyclin A2 and over 100 µM in experiment [1].
Turning to `CCCN1CCN(Cc2ccc(C(=O)N[C@@H](CCCNC(=N)N)C(=O)NC(CC(=O)NC(Cc3ccsc3)C(N)=O)CC(C)C)cc2)CC1` (stereo partly drawn), the IC50 on CDK2/Cyclin A2 came out at 31.3 µM; in experiment [1], 8.52 µM.
As to `CCOc1cc(C(=O)N[C@@H](CCCNC(=N)N)C(=O)NC(CC(=O)N(C)[C@@H](Cc2ccccc2)C(N)=O)CC(C)C)ccc1CN1CCNCC1` (stereo partly drawn), the IC50 on CDK2/Cyclin A2 was 22.6 µM; in experiment [1] it was 18.6 µM.
As to `CC(C)CC(CC(=O)N(C)[C@@H](Cc1ccccc1)C(N)=O)NC(=O)[C@H](CCCNC(=N)N)NC(=O)c1ccc(OC2CCNCC2)cc1` (stereo partly drawn), the IC50 on CDK2/Cyclin A2 was 40.4 µM; in experiment [1], 31 µM.
Regarding `CC[C@H](C)[C@H](NC(=O)[C@H](CC(C)C)NC(=O)[C@H](CCCNC(=N)N)NC(=O)c1ccc(CN2CCN(C)CC2)cc1)C(=O)N[C@@H](Cc1ccccc1)C(=O)O` (HELM PEPTIDE1{[CN1CCN(Cc2ccc(C(=O)[*:2])cc2)CC1].R.L.I.F}$$$$V2.0), the IC50 on CDK2/Cyclin A2 stood at 7.92 µM; in experiment [1], 11.3 µM.
Turning to `CC(C)CC(CC(=O)N(C)[C@@H](Cc1ccccc1)C(N)=O)NC(=O)[C@H](CCCNC(=N)N)NC(=O)c1ccc(CN2CCNC[C@@H]2C)cc1` (stereo partly drawn), the IC50 on CDK2/Cyclin A2 is 13.4 µM; in experiment [2], 204 µM; in experiment [1] it was over 100 µM; in the experiment on U2OS it was 229 µM.
Consider `CC(C)CC(CC(=O)N(C)[C@@H](Cc1ccccc1)C(N)=O)NC(=O)[C@H](CCCNC(=N)N)NC(=O)c1ccc(CN2CCNCC2)c(O)c1` (stereo partly drawn), for which the half-maximal inhibitory concentration (IC50) on CDK2/Cyclin A2 amounted to 7.42 µM; in experiment [1], 11.8 µM.
The matching figures for `CC(C)CC(CC(=O)N(C)[C@@H](Cc1ccccc1)C(N)=O)NC(=O)[C@H](CCCNC(=N)N)NC(=O)c1ccc(CN2CCNC[C@H]2C)cc1` (stereo partly drawn): 22.3 µM and 45.4 µM.
